Experimental data: ChEMBL document CHEMBL3045985, “Three-dimensional common-feature hypotheses for hypoglycemic flavonyl-2,4-thiazolidinedione derivatives” (2010)

Columns and labels:
Type in all cases: functional
[1] = system: INS1; assay: Hypoglycemic activity in Rattus norvegicus (rat) INS1 cells assessed as glucose-mediated insulin release after 90 min (reference value: 62.96 +/- 5.68 to 69.70 +/- 4.98 %)
[2] = system: INS1; assay: Hypoglycemic activity in Rattus norvegicus (rat) INS1 cells assessed as glucose-mediated insulin release at 10 umol/l after 90 min (reference value: 62.96 +/- 5.68 to 69.70 +/- 4.98 %)
[3] = system: INS1; assay: Hypoglycemic activity in Rattus norvegicus (rat) INS1 cells assessed as glucose-mediated insulin release at 1 ug/ml after 90 min (reference value: 62.96 +/- 5.68 to 69.70 +/- 4.98 %)
[4] = system: INS1; assay: Hypoglycemic activity in Rattus norvegicus (rat) INS1 cells assessed as insulin release at 5.6 mmol/l after 90 min (reference value: 62.96 +/- 5.68 to 69.70 +/- 4.98 %)

SMILES | Activity [1] | also measured
O=C1NC(=O)/C(=C\c2cccc(-c3cc(=O)c4ccccc4o3)c2)N1 | 103.3% | 
CN(CCOc1ccc(CC2SC(=O)NC2=O)cc1)c1ccccn1 (stereo not drawn) [ROSIGLITAZONE] |  | Activity [2]: 116%
O=C1NC(=O)/C(=C/c2ccc(-c3cc(=O)c4ccccc4o3)cc2)N1 | 105.1% | 
O=C1NC(=S)N/C1=C\c1ccc(-c2cc(=O)c3ccccc3o2)cc1 | 130.3% | 
CCN1C(=O)N/C(=C/c2cccc(-c3cc(=O)c4ccccc4o3)c2)C1=O | 167.8% | 
CN1C(=O)/C(=C\c2cccc(-c3cc(=O)c4ccccc4o3)c2)N(C)C1=O | 218.3% | 
CCN1C(=O)/C(=C\c2cccc(-c3cc(=O)c4ccccc4o3)c2)NC1=S | 129.6% | 
CN1C(=O)/C(=C/c2ccc(-c3cc(=O)c4ccccc4o3)cc2)N(C)C1=S | 114.3% | 
O=C1NC(=O)/C(=C/c2ccc(-c3cc(=O)c4ccccc4o3)cc2)S1 | 55.7% | 
O=C1NC(=O)C(Cc2cccc(-c3cc(=O)c4ccccc4o3)c2)S1 (stereo not drawn) | 69.89% | 
CN1C(=O)S/C(=C\c2ccc(-c3cc(=O)c4ccccc4o3)cc2)C1=O | 145.1% | 
CCN1C(=O)S/C(=C/c2cccc(-c3cc(=O)c4ccccc4o3)c2)C1=O | 299% | 
CCN1C(=O)/C(=C/c2ccc(-c3cc(=O)c4ccccc4o3)cc2)N(CC)C1=S | 96.27% | 
CCN1C(=O)S/C(=C\c2ccc(-c3cc(=O)c4ccccc4o3)cc2)C1=O | 117.9% | 
COc1ccc(Cl)cc1C(=O)NCCc1ccc(S(=O)(=O)NC(=O)NC2CCCCC2)cc1 [GLYBURIDE] |  | Activity [3]: 210.4%
O=C1NC(=S)N/C1=C/c1cccc(-c2cc(=O)c3ccccc3o2)c1 | 247.1% | 
CN1C(=O)S/C(=C/c2cccc(-c3cc(=O)c4ccccc4o3)c2)C1=O | 134.9% | 
O=C1NC(=O)C(Cc2ccc(-c3cc(=O)c4ccccc4o3)cc2)S1 (stereo not drawn) | 135.5% | 
CCN1C(=O)/C(=C/c2ccc(-c3cc(=O)c4ccccc4o3)cc2)N(CC)C1=O | 127.1% | 
OC[C@H]1OC(O)[C@H](O)[C@@H](O)[C@@H]1O (stereo partly drawn) [DEXTROSE] |  | Activity [4]: 100%
CN1C(=O)/C(=C/c2ccc(-c3cc(=O)c4ccccc4o3)cc2)N(C)C1=O | 103.4% | 
O=C1NC(=O)/C(=C\c2cccc(-c3cc(=O)c4ccccc4o3)c2)S1 | 79.76% | 
CN1C(=O)/C(=C\c2cccc(-c3cc(=O)c4ccccc4o3)c2)N(C)C1=S | 102.8% | 
